According to PubChem BioAssay AID1963843 (Molecular Pharmacology Branch, DTP, NCI, 2024):
pIC50: −log10 of the molar value.

System: 616215-338-R-J1-PDC complex spheroid viability
Experiment: Anticancer human tumor 616215-338-R-J1-PDC patient-derived colon adenocarcinoma cell line growth inhibition [POLQ]
Conditions: for pIC50: curve of first compound; for viability, T/C: stronger effect = lower value
How it was run: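 Three-cell-type spheroids modelling solid tumor plus stroma served as the readout system; POL inhibitors were tested individually and in combination, concentration ranges set by clinical Cmax where known.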

[1] = second compound 0.0316 µM, first compound 0.0316 µM
[2] = second compound 0.0316 µM, first compound 0.1 µM
[3] = second compound 0.0316 µM, first compound 0.316 µM
[4] = second compound 0.0316 µM, first compound 1 µM
[5] = second compound 0.1 µM, first compound 0.0316 µM
[6] = second compound 0.1 µM, first compound 0.1 µM
[7] = second compound 0.1 µM, first compound 0.316 µM
[8] = second compound 0.1 µM, first compound 1 µM
[9] = second compound 0.316 µM, first compound 0.0316 µM
[10] = second compound 0.316 µM, first compound 0.1 µM
[11] = second compound 0.316 µM, first compound 0.316 µM
[12] = second compound 0.316 µM, first compound 1 µM
[13] = second compound 1 µM, first compound 0.0316 µM
[14] = second compound 1 µM, first compound 0.1 µM
[15] = second compound 1 µM, first compound 0.316 µM
[16] = second compound 1 µM, first compound 1 µM
[17] = second compound 3.16 µM, first compound 0.0316 µM
[18] = second compound 3.16 µM, first compound 0.1 µM
[19] = second compound 3.16 µM, first compound 0.316 µM
[20] = second compound 3.16 µM, first compound 1 µM
[21] = second compound 10 µM, first compound 0.0316 µM
[22] = second compound 10 µM, first compound 0.1 µM
[23] = second compound 10 µM, first compound 0.316 µM
[24] = second compound 10 µM, first compound 1 µM
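Also: spheroids exposed to compounds for one week before readout.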
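For viability, T/C in this document: percent viability relative to DMSO vehicle wells taken as 100%.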

`C=CCn1c(=O)c2cnc(Nc3ccc(N4CCN(C)CC4)cc3)nc2n1-c1cccc(C(C)(C)O)n1` + COC1C(OC(N)=O)C(O)C(Oc2ccc3c(O)c(NC(=O)c4ccc(O)c(CC=C(C)C)c4)c(=O)oc3c2C)OC1(C)C showed a pIC50 (second compound 0.0316 µM) of under 6.00, a pIC50 (second compound 0.1 µM) of under 6.00 and a pIC50 (second compound 0.316 µM) of under 6.00. For the same compound, the pIC50 (second compound 1 µM) was under 6.00, the pIC50 (second compound 3.16 µM) was under 6.00 and the pIC50 (second compound 10 µM) was under 6.00. The viability, T/C (second compound 0.0316 µM, first compound 0.00316 µM) was 102%, the viability, T/C (second compound 0.0316 µM, first compound 0.01 µM) was 97.8% and the viability, T/C [1] was 97.2%. The viability, T/C [2] was 113%, the viability, T/C [3] was 97.8% and the viability, T/C [4] was 91.8%. The viability, T/C (second compound 0.1 µM, first compound 0.00316 µM) was 105%, the viability, T/C (second compound 0.1 µM, first compound 0.01 µM) was 101% and the viability, T/C [5] was 89.2%. For the same compound, the viability, T/C [6] was 103%, the viability, T/C [7] was 95.3% and the viability, T/C [8] was 55.8%. For the same compound, the viability, T/C (second compound 0.316 µM, first compound 0.00316 µM) was 94.3%, the viability, T/C (second compound 0.316 µM, first compound 0.01 µM) was 106% and the viability, T/C [9] was 101%. For the same compound, the viability, T/C [10] was 97.8%, the viability, T/C [11] was 95.2% and the viability, T/C [12] was 59.4%. For the same compound, the viability, T/C (second compound 1 µM, first compound 0.00316 µM) was 105%, the viability, T/C (second compound 1 µM, first compound 0.01 µM) was 94.5% and the viability, T/C [13] was 101%. For the same compound, the viability, T/C [14] was 103%, the viability, T/C [15] was 90.7% and the viability, T/C [16] was 61.5%. It also gave a viability, T/C (second compound 3.16 µM, first compound 0.00316 µM) of 93.8%, a viability, T/C (second compound 3.16 µM, first compound 0.01 µM) of 104% and a viability, T/C [17] of 100%. For the same compound, the viability, T/C [18] was 98.2%, the viability, T/C [19] was 93.9% and the viability, T/C [20] was 61.4%. The viability, T/C (second compound 10 µM, first compound 0.00316 µM) was 105%, the viability, T/C (second compound 10 µM, first compound 0.01 µM) was 100% and the viability, T/C [21] was 98.3%. For the same compound, the viability, T/C [22] was 103%, the viability, T/C [23] was 87.7% and the viability, T/C [24] was 67.3%.

`CNCc1ccc(-c2[nH]c3cc(F)cc4c3c2CCNC4=O)cc1` + COC1C(OC(N)=O)C(O)C(Oc2ccc3c(O)c(NC(=O)c4ccc(O)c(CC=C(C)C)c4)c(=O)oc3c2C)OC1(C)C showed a pIC50 (second compound 0.0316 µM) of under 5.00, a pIC50 (second compound 0.1 µM) of under 5.00 and a pIC50 (second compound 0.316 µM) of under 5.00. The pIC50 (second compound 1 µM) was under 5.00, the pIC50 (second compound 3.16 µM) was under 5.00 and the pIC50 (second compound 10 µM) was under 5.00. For the same compound, the viability, T/C [1] was 98.7%, the viability, T/C [2] was 99.8% and the viability, T/C [3] was 106%. For the same compound, the viability, T/C [4] was 111%, the viability, T/C (second compound 0.0316 µM, first compound 3.16 µM) was 107% and the viability, T/C (second compound 0.0316 µM, first compound 10 µM) was 93.3%. For the same compound, the viability, T/C [5] was 102%, the viability, T/C [6] was 102% and the viability, T/C [7] was 98.7%. The viability, T/C [8] was 99.5%, the viability, T/C (second compound 0.1 µM, first compound 3.16 µM) was 101% and the viability, T/C (second compound 0.1 µM, first compound 10 µM) was 83.9%. For the same compound, the viability, T/C [9] was 107%, the viability, T/C [10] was 113% and the viability, T/C [11] was 115%. For the same compound, the viability, T/C [12] was 105%, the viability, T/C (second compound 0.316 µM, first compound 3.16 µM) was 105% and the viability, T/C (second compound 0.316 µM, first compound 10 µM) was 83.2%. It also gave a viability, T/C [13] of 105%, a viability, T/C [14] of 106% and a viability, T/C [15] of 101%. For the same compound, the viability, T/C [16] was 102%, the viability, T/C (second compound 1 µM, first compound 3.16 µM) was 109% and the viability, T/C (second compound 1 µM, first compound 10 µM) was 76.2%. For the same compound, the viability, T/C [17] was 106%, the viability, T/C [18] was 101% and the viability, T/C [19] was 106%. The viability, T/C [20] was 109%, the viability, T/C (second compound 3.16 µM, first compound 3.16 µM) was 117% and the viability, T/C (second compound 3.16 µM, first compound 10 µM) was 58.9%. The viability, T/C [21] was 109%, the viability, T/C [22] was 101% and the viability, T/C [23] was 97.6%. For the same compound, the viability, T/C [24] was 104%, the viability, T/C (second compound 10 µM, first compound 3.16 µM) was 105% and the viability, T/C (second compound 10 µM, first compound 10 µM) was 55%.
